Assay results as given in patent publication US7374748B2, “Pharmaceutical and cosmetic compositions for the protection of the skin from damages induced by sun radiations” (Indena S.p.A., priority 2001, dated 2008).

Test system: hepatic microsomes
Assay: antioxidant test with CCl4 as pro-oxidant stimulus and hepatic microsomes as target
Format: biochemical
Settings: CCl4 as pro-oxidant stimulus, hepatic microsomes as target
Excerpt: They are characterized by excellent antioxidizing and antiinflammatory properties.

Substance: vitamin E
- LC50 (antioxidant activity): 30.0 micrograms per ml
